Reference: article PMC5540879 (Molecular cancer research : MCR, 2017)

Target: T1, OATP1B3 (Homo sapiens, UniProt Q9NPD5)
T1 sequence (Q9NPD5 1-702): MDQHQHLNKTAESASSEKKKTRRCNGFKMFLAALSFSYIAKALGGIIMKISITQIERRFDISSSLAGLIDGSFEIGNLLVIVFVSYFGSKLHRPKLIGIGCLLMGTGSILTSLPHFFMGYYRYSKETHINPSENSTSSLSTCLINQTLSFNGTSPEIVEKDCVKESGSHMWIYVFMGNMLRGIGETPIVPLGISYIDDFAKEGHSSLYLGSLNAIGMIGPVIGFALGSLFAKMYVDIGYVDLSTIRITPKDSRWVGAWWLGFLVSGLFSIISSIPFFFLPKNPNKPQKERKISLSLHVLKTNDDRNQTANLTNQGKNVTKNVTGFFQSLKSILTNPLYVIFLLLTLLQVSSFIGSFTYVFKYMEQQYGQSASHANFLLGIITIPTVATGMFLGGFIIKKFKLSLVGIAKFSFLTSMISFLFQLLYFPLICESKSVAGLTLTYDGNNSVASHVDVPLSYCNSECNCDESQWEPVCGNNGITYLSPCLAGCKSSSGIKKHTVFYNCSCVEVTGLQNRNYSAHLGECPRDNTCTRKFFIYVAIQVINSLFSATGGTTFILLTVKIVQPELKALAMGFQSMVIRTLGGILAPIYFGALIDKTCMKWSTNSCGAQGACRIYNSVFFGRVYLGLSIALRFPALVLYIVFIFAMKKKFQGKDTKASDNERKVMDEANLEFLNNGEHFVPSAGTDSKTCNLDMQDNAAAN
Test: radiolabeled uptake kinetics
Assay type: cell-based
Settings: oatp1b3-cho cells

Compound	Km
C[C@]12CCC(=O)C[C@@H]1CC[C@@H]1[C@@H]2CC[C@]2(C)[C@@H](O)CC[C@@H]12 [DHT]	30.4 ± 9.3 µM
C[C@]12CCC(=O)C=C1CC[C@@H]1[C@@H]2CC[C@]2(C)C(=O)CC[C@@H]12 [androstenedione, 4-androstene-3,17-dione]	31.7 ± 9.5 µM
C[C@]12CC[C@H]3[C@@H](CCC4=CC(=O)CC[C@@]43C)[C@@H]1CC[C@@H]2O [testosterone]	23.2 ± 3.9 µM
